ChEMBL document CHEMBL5096210, “Discovery of Betulinic Acid Derivatives as Potent Intestinal Farnesoid X Receptor Antagonists to Ameliorate Nonalcoholic Steatohepatitis” (J Med Chem, 2022)
Activity calls are given as the source filed them. No cut-off for these calls is given here.

Legend:
[1] = target: T1, Bile acid receptor (Mus musculus) (UniProt Q60641); experiment: In vivo antagonist activity against FXR in mouse assessed as reduction in Fgf15 level in presence of CDCA; assay type: functional
T1 sequence (whole entry): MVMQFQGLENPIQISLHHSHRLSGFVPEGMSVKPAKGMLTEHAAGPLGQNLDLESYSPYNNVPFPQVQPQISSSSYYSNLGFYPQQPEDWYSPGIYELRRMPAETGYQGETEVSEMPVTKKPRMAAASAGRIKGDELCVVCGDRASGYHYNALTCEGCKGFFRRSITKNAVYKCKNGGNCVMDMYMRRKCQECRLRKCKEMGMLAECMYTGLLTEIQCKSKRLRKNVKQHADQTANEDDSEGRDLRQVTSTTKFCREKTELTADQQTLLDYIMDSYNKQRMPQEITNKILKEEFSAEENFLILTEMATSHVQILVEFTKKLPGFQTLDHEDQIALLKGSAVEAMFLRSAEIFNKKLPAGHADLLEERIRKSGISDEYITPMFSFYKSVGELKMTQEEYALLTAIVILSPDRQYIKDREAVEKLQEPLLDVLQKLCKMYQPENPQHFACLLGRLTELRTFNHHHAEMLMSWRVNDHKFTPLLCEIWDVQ

[2] = target: T1, Bile acid receptor (Mus musculus); experiment: In vivo antagonist activity against FXR in microbeta depleted mouse assessed as reduction in taurocholic acid induced Fgf15 mRNA expression in ileum at 10 mg/kg, po incubated for 2 to 48 hrs; assay type: functional, organism-based; details: time 2-48 hrs
Mus musculus [3] = organism: Mus musculus; experiment: Anti-NASH activity in GAN diet-induced […] mouse assessed as reduction in ALT level; assay type: functional, organism-based
Mus musculus [4] = organism: Mus musculus; experiment: Anti-NASH activity in GAN diet-induced […] mouse assessed as suppression of FXR expression; assay type: functional, organism-based
Mus musculus [5] = organism: Mus musculus; experiment: Anti-NASH activity in GAN diet-induced […] mouse assessed as reduction in bile acid loss in cecum content; assay type: functional, organism-based
Mus musculus [6] = organism: Mus musculus; experiment: Anti-NASH activity in GAN diet-induced […] mouse assessed as reduction of bile acid pool size in ileum; assay type: functional, organism-based
Mus musculus [7] = organism: Mus musculus; experiment: Anti-NASH activity in GAN diet-induced […] mouse assessed as bile acid level in gall bladder; assay type: functional, organism-based
Mus musculus [8] = experiment: Anti-NASH activity in HFMCD diet-induced […] mouse assessed as reduction in ALT serum level at 30 mg/kg, po for 4 weeks; assay type: functional, organism-based
[9] = Drug metabolism in C57BL6 mouse Gall bladder assessed as ((1S,3aS,5aR,5bR,7aR,9R,11aR,11bR,13aR,13bR)-9-hydroxy-1-isopropyl-5a,5b,8,8,11a-pentamethylicosahydro-1H-cyclopenta[a]chrysene-3a-carbonyl)glycine formation at 10 mg/kg, po administered as single dose measured after 2 hrs; assay type: ADME, organism-based; details: in vivo
Mus musculus [10] = organism: Mus musculus; experiment: Anti-NASH activity in GAN diet-induced […] mouse assessed as reduction in hepatic triglycerides level; assay type: functional, organism-based
Mus musculus [11] = experiment: Anti-NASH activity in GAN diet-induced […] mouse assessed as reduction of glycosyl-ceramide level in serum administered orally for 12 weeks; assay type: functional, organism-based; details: route po
Mus musculus [12] = organism: Mus musculus; experiment: Anti-NASH activity in GAN diet-induced […] mouse assessed as reduction in cleaved caspase 1 level; assay type: functional, organism-based
Mus musculus [13] = experiment: Anti-NASH activity in GAN-induced […] mouse assessed as upregulation of Ucp1 expression in inguinal white adipose tissue at 10 mg/kg; assay type: functional, organism-based
[14] = Drug metabolism in C57BL6 mouse liver assessed as ((1S,3aS,5aR,5bR,7aR,9R,11aR,11bR,13aR,13bR)-9-hydroxy-1-isopropyl-5a,5b,8,8,11a-pentamethylicosahydro-1H-cyclopenta[a]chrysene-3a-carbonyl)glycine formation at 10 mg/kg, po administered as single dose measured after 2 hrs; assay type: ADME, organism-based; details: in vivo
Mus musculus [15] = organism: Mus musculus; experiment: Anti-NASH activity in GAN diet-induced […] mouse assessed as upregulation of Cyp8b1 mRNA expression in liver; assay type: functional, organism-based
Mus musculus [16] = organism: Mus musculus; experiment: Anti-NASH activity in GAN diet-induced […] mouse assessed as reduction in hepatic cholesterol level; assay type: functional, organism-based
Mus musculus [17] = organism: Mus musculus; experiment: Anti-NASH activity in GAN diet-induced […] mouse assessed as reduction in mature Il1beta; assay type: functional, organism-based
Mus musculus [18] = organism: Mus musculus; experiment: Anti-NASH activity in GAN diet-induced […] mouse assessed as increase in bile acid level in liver; assay type: functional, organism-based
Mus musculus [19] = organism: Mus musculus; experiment: Anti-NASH activity in GAN diet-induced […] mouse assessed as suppression of Shp expression; assay type: functional, organism-based
Mus musculus [20] = organism: Mus musculus; experiment: Anti-NASH activity in GAN diet-induced […] mouse assessed as increase in Bsep mRNA level; assay type: functional, organism-based
Liver [21] = experiment: Anti-NASH activity in GAN diet-induced […] mouse liver assessed as reduced NAFLD activity score; assay type: functional
[22] = target: T1, Bile acid receptor (Mus musculus); experiment: In vivo antagonist activity against FXR in mouse assessed as reduction in Shp level in presence of GW4064; assay type: functional
Mus musculus [23] = organism: Mus musculus; experiment: Anti-NASH activity in GAN diet-induced […] mouse assessed as reduction in Fabp4 mRNA expression level; assay type: functional, organism-based
Liver [24] = experiment: Anti-NASH activity in GAN diet-induced […] mouse liver assessed as reduction in hepatocyte collagen deposition by H and E staining based analysis; assay type: functional, cell-based
Mus musculus [25] = organism: Mus musculus; experiment: Anti-NASH activity in GAN diet-induced […] mouse assessed as suppression of O-sta expression; assay type: functional, organism-based
Mus musculus [26] = experiment: Anti-NASH activity in GAN-induced […] mouse assessed as reduction in body weight at 10 mg/kg, IG measured after 12 weeks; assay type: functional, organism-based
Mus musculus [27] = experiment: Anti-NASH activity in GAN diet-induced […] mouse assessed as reduction of dihydroceramide level in serum administered orally for 12 weeks; assay type: functional, organism-based; details: route po
Mus musculus [28] = organism: Mus musculus; experiment: Anti-NASH activity in GAN diet-induced […] mouse assessed as downregulation of Ccl2 level; assay type: functional, organism-based
Mus musculus [29] = organism: Mus musculus; experiment: Anti-NASH activity in GAN diet-induced […] mouse assessed as reduction in Col3a1 level; assay type: functional, organism-based
Liver [30] = experiment: Anti-NASH activity in GAN diet-induced […] mouse liver assessed as reduction in hepatocyte ballooning by Oil Red O staining based assay; assay type: functional, cell-based
[31] = target: T1, Bile acid receptor (Mus musculus); experiment: In vivo antagonist activity against FXR in microbeta depleted mouse assessed as reduction in taurocholic acid induced FXR mRNA expression in hepatic signaling at 10 mg/kg, po incubated for 2 to 48 hrs; assay type: functional, organism-based; details: time 2-48 hrs
[32] = target: T1, Bile acid receptor (Mus musculus); experiment: In vivo antagonist activity against FXR in mouse assessed as reduction in Fxr level in presence of CDCA; assay type: functional
Mus musculus [33] = organism: Mus musculus; experiment: Anti-NASH activity in GAN diet-induced […] mouse assessed as reduction in Plin2 mRNA expression level; assay type: functional, organism-based
Liver [34] = experiment: Anti-NASH activity in GAN diet-induced […] mouse liver assessed as reduction in hepatocyte fat by H and E staining based analysis; assay type: functional, cell-based
Mus musculus [35] = experiment: Anti-NASH activity in GAN-induced […] mouse assessed as reduction in fat/lean index at 10 mg/kg, IG measured after 12 weeks; assay type: functional, organism-based
Mus musculus [36] = organism: Mus musculus; experiment: Anti-NASH activity in GAN diet-induced […] mouse assessed as reduction in Dgat2 level; assay type: functional, organism-based

For `CCCC(=O)O[C@@H]1CC[C@]2(C)[C@H]3CC[C@@H]4[C@H]5[C@H](C(C)C)CC[C@]5(C(=O)NCC(=O)O)CC[C@@]4(C)[C@]3(C)CC[C@H]2C1(C)C`, the Activity [1] was “Active”, the Activity [2] was “Active” and the Activity (Mus musculus [3]) was “Active”. The Activity (Mus musculus [4]) was “Active”, the Activity (Mus musculus [5]) was “Active” and the Activity (Mus musculus [6]) was “Active”. The Activity (Mus musculus [7]) was “Active”, the Activity (Mus musculus [8]) was “Active” and the Drug metabolism [9] was “Metabolite_Detected”. The Activity (Mus musculus [10]) was “Active”, the Activity (Mus musculus [11]) was “Active” and the Activity (Mus musculus [12]) was “Active”. For the same molecule, the Activity (Mus musculus [13]) was “Active”, the Drug metabolism [14] was “Metabolite_Detected” and the Activity (Mus musculus [15]) was “Active”. For the same molecule, the Activity (Mus musculus [16]) was “Active”, the Activity (Mus musculus [17]) was “Active” and the Activity (Mus musculus [18]) was “Active”. The Activity (Mus musculus [19]) was “Active”, the Activity (Mus musculus [20]) was “Active” and the Activity (Liver [21]) was “Active”. The Activity [22] was “Active”, the Activity (Mus musculus [23]) was “Active” and the Activity (Liver [24]) was “Active”. The Activity (Mus musculus [25]) was “Active”, the Activity (Mus musculus [26]) was “Active” and the Activity (Mus musculus [27]) was “Active”. For the same molecule, the Activity (Mus musculus [28]) was “Active”, the Activity (Mus musculus [29]) was “Active” and the Activity (Liver [30]) was “Active”. For the same molecule, the Activity [31] was “Active”, the Activity [32] was “Active” and the Activity (Mus musculus [33]) was “Active”. The Activity (Liver [34]) was “Active”, the Activity (Mus musculus [35]) was “Active” and the Activity (Mus musculus [36]) was “Active”.
